Data set [1] in a line: Cytotoxicity, commercial modification of the MTT assay. In kind it is cell-based, porcine. The conditions noted are these: pig, smooth muscle cells, medium without serum, 24 hours at 37° C., no drug = 100% viable. How it is done:
To distinguish cytotoxicity from the ability of a compound to prevent proliferation, the test compounds were examined using a commercial modification of the MTT assay. Briefly, cells were grown in 24 well plates to 70-80% confluency. The cells were serum deprived for 24-48 hours prior to initiation of the experimental protocol. To insure that the MTT assay monitored toxicity rather than proliferation, the cells were incubated with […] test compound in fresh medium without serum for 24 hours at 37° C. in a humidified CO2 incubator. Upon completion of the compound treatment, MTT indicator dye was added for 4 hours at 37° C. Cells were then solubilized and aliquots from each well were transferred to a 96-well plate for analysis. Absorbance at 570 nm wavelength with a reference wavelength of 630 nm was recorded using an ELISA plate reader. Results are reported as percent viable using no drug (100% viable) and pre-solubilization (0% viable) standards.

Data set [2] relates to porcine aortic smooth muscle cells. Kind of data set: Inhibition of PDGF-stimulated porcine aortic smooth muscle cell proliferation (3H-thymidine). In kind it is cell-based. Conditions: Sus scrofa; stimulated with human recombinant PDGF-AB; 24-36 hours at 37° C.; assayed at 1, 10, and 100 μM; read-out: Porcine Smooth Muscle Cell Antiproliferation IC50 or % Inhibition at × Concentration, PDGF. How it is done: (§1) The ability of the compounds of the present invention to inhibit smooth muscle cell proliferation was established using isolated porcine aortic smooth muscle cells in a modification of the procedure of Castellot et al. J. Biol. Chem 257(19) 11256 (1982), as follows:
(§2) Fresh porcine aortas, scrupulously cleansed of fatty tissue, are rinsed in sterile phosphate-buffered saline with 2% antibiotic-antimycotic (100×) liquid (10,000 units of penicillin (base), 10,000 μg of streptomycin (base), and 25 μg of amphotericin B/mL utilizing penicillin G (sodium salt), streptomycin sulfate, and amphotericin B as Fungizone® in 0.85% saline, available from Gibco Laboratories, Grand Island Biological Co., Grand Island, N.Y.). The tissue is then digested in 10-15 mL of an enzyme solution containing collagenase type I, 165 U/mL; elastase type III, 15 U/mL; BSA, 2 mg/mL; and soybean trypsin inhibitor, 0.375 mg/mL, followed by incubation at 37° C. under 5% CO2 atmosphere for 10 to 15 minutes. After this treatment, the outer surface adventitia is removed by peeling with a forceps. The aorta is then longitudinally cut and laid open and the endothelial layer is removed by scraping.
(§3) The medial layer of cells is rinsed in the enzyme solution, and placed in a new 100 mm dish with 10 mL of enzyme solution. The medial layer of cells is minced using a fine pair of scissors and digested for 2-3 hours at 37° C. in 30 mL of fresh enzyme solution. After digestion, the medial tissue is homogenized using a sterile Pasteur pipette with a fire polished tip or an Eppendorf pipetter with a 200-1000 μL sterile pipette tip. The suspension is then centrifuged for 10 minutes at 8000 rpm and the pellet is suspended in 4-6 mL of fresh enzyme solution and plated onto 4-6 100 mm flasks with vented caps. The cells are then allowed to grow to confluence and split using 0.25% trypsin. The cells are evaluated for purity and overall quality using antibody to SMC actin.
(§4) The cells are assayed in early passage (generally passage 3-7) at sub-confluent conditions. Cultures are grown in 16 mm (24 well) multi-well culture dishes in media 199 supplemented with 10% fetal bovine serum and 2% antibiotic/antimycotic. At subconfluence, the cells are placed in a defined serum free, lymphocyte medium (AIM-V; Gibco) for 24-48 hours prior to initiating the experimental protocol.
(§5) The standard test procedure is initiated by addition of the test compound, ^3 H-thymidine and serum or a specific growth factor to the serum deprived synchronized cells. Growth factor and serum stimulations are optimized for each cell type. The test compounds are added to each well at 50 fold dilution (20 μL/well) and the plates are incubated for 24-36 hours at 37° C. in 5% CO2 atmosphere. Test compounds are dissolved in 50% ethanol and assayed at 1, 10, and 100 μM. As a control, RG 50872 (Bilder, G. A.; et al., Am. J. Cell Physiol., 1991; 260: C721) is routinely assayed under the conditions of each cell preparation at a concentration of 5 μM.
(§6) At the completion of the experiment, the plates are placed on ice, washed three times with ice cold PBS and incubated in ice cold 10% trichloroacetic acid (TCA) for 30 minutes to remove acid soluble proteins. […]
(§7) Data is quantitated by subjecting the vials to a scintillation counter, in triplicate, for both control and experimental samples. […] Data is expressed as a percent of control from which IC50 s are determined.

Data set [3] has the same test system. Kind of data set: Inhibition of serum-stimulated porcine aortic smooth muscle cell proliferation (3H-thymidine). In kind it is cell-based. Conditions: Sus scrofa, 24-36 hours at 37° C., assayed at 1, 10, and 100 μM, read-out: Porcine Smooth Muscle Cell Antiproliferation IC50 or % Inhibition at × Concentration, Serum. How it is done:
as §1, §2, §3, §4, §5, §6, §7

pIC50: −log10 of the molar value.

`COC(=O)c1ccc(CSc2nc3cc([N+](=O)[O-])ccc3[nH]2)cc1` [Example 5, 4-(5-Nitro-1H-benzoimidazol-2-ylsulfanylmethyl)-benzoic acid methyl ester] returned a viability at 24 h in data set [1] of 100%. Also, the pIC50 was 5.21 in data set [2] and 4.74 in data set [3].

`Fc1cc2[nH]c(SCc3ccc(Cl)c(Cl)c3)nc2cc1Cl` [Example 1, 5(6)-Chloro-2-(3,4-dichlorobenzylsulfanyl)-6(5)-fluoro-1H-benzoimidazole]: the viability at 24 h in data set [1] was 100%. Moreover, the pIC50 is 6.21 to 7.22 in data set [2] and 4.63 in data set [3].

Take `COC(=O)c1ccc(CSc2nc3ccccc3[nH]2)cc1` [Example 4, 4-(1H-Benzoimidazol-2-ylsulfanylmethyl)-benzoic acid methyl ester]: in data set [1], the viability at 24 h stood at 100%. For the same compound, the pIC50 in data set [2] is 5.43; in data set [3], 5.82.

In the case of `Clc1ccc(CSc2nc3ccccc3[nH]2)cc1Cl` [Example 3, 2-(3,4-Dichlorobenzylsulfanyl)-1H-benzoimidazole], the viability at 24 h in data set [1] stood at 100%. The pIC50 in data set [2] was 5.36; in data set [3], 4.92.

In the case of `O=[N+]([O-])c1ccc2[nH]c(SCc3ccc(Cl)c(Cl)c3)nc2c1` [Example 2, 2-(3,4-Dichlorobenzylsulfanyl)-5-nitro-1H-benzoimidazole], the viability at 24 h in data set [1] is 100%. Further, the pIC50 is 6.00 to 6.92 in data set [2] and 5.00 in data set [3].

What is called viability is a read-out of living cells in per cent, often relative to untreated cells. Lower therefore signals more harm to the cells.

Values taken from patent publication US5684030A, “2-substituted benzimidazole derivatives” (American Home Products Corporation, priority 1995, dated 1997).
